Results on three compounds are retold here after patent US20260217765A1, “NOVEL ANTIMICROBIAL PEPTIDE DESIGNED FROM DUCK-DERIVED ANTIMICROBIAL PEPTIDE ANDUSE THEREOF” (INDUSTRY-ACADEMIC COOPERATION FOUNDATION, CHOSUN UNIVERSITY, priority 2023, published 2026).

Converted amounts (≈) assume the structure as drawn. Peptide text beside a SMILES is read from it.

The test system of data set [1] is Acinetobacter baumannii_isolate 10. Format: cell-based, Acinetobacter baumannii. The conditions noted are these: isolate 10, 24 h. As to the method:
(§1) Specifically, among the bacterial strains listed in Table 2, those known to form biofilms well (Acinetobacter baumannii KCTC 2508, Acinetobacter baumannii isolate 10, and isolate 14) were cultured in the appropriate media to the mid-log phase and diluted to a cell concentration of 5×10^4 cells/100 µL, followed by inoculation into microplates (SPL). Subsequently, the peptides prepared in <Example 1> were serially 10-fold diluted with 10 mM sodium phosphate buffer (pH 7.2), and 10 μL of each dilution was added to each well. The plates were then incubated at 37° C. for 24 hours. After completely removing the supernatant, the plates were fixed with 100% methanol for 15 minutes, stained with crystal violet staining solution for 1 hour, washed three times, and then the stain was solubilized with 95% ethanol. Absorbance was measured at 595 nm using a microplate reader to determine the MBIC values for each bacterial strain.

The subject of data set [2] is Acinetobacter baumannii_isolate 14. Format: cell-based, Acinetobacter baumannii. The conditions noted are these: isolate 14, 24 h. The protocol:
as §1

A short description of a further data set: in vitro. Format: cell-based. The conditions noted are these: human, HaCaT keratinocyte cells, Cell Viability. The protocol:
To evaluate the cytotoxicity of the peptides prepared in <Example 1>, toxicity was measured using a human keratinocyte cell line (HaCaT cell line, Dr. N. E. Fusenig, Heidelberg, Germany).
Specifically, HaCaT cells cultured in DMEM medium containing 10% fetal bovine serum (FBS) were seeded at a density of 2×10^5 cells/well into a microtiter plate and incubated for 24 hours. Then, peptides dCATH, dCATH-A1, dCATH-A2, dCATH-A3, dCATH-A4, dCATH-A5, dCATH-A6, and dCATH-A7 were added to each well at concentrations of 3.13, 6.25, 12.5, 25.0, 50.0, and 100.0 μM/well, followed by incubation for 24 hours in a 5% CO2 incubator. After 24 hours, 100 μL of a reaction solution containing 0.5 mg/mL MTT (Thiazolyl Blue Tetrazolium Bromide) dissolved in phosphate-buffered saline (PBS) was added to each well and reacted for 4 hours. After removing the supernatant, 200 μL of DMSO (dimethyl sulfoxide) was added to dissolve the formed MTT crystals, and absorbance at 570 nm was measured to determine cell viability.

The test system of data set [3] is Acinetobacter baumannii membrane. As to the kind of experiment: Flow cytometry, propidium iodide, action on bacterial membrane. The conditions noted are these: peptide at twice the MIC, 37° C. 10 minutes. The format is cell-based. The protocol:
To determine whether the peptides prepared in <Example 1> act on bacterial membranes, the parent peptide and the novel peptides dCATH-A1, dCATH-A2, dCATH-A3, dCATH-A4, dCATH-A5, dCATH-A6, and dCATH-A7 were analyzed using flow cytometry.
Specifically, Acinetobacter baumannii was treated with each peptide at twice the minimum inhibitory concentration (MIC), followed by incubation at 37° C. for 10 minutes. The supernatant was then removed by centrifugation at 10,000 rpm, and the bacterial cells were stained with propidium iodide (PI) at a concentration of 10 μg/mL at 4° C. for 30 minutes. Unbound PI was removed by centrifugation, and 1 mL of phosphate-buffered saline (PBS) was added to disperse any cell clumps. The effect of the peptides on the bacterial membrane was then assessed using a Beckman flow cytometer.

Another data set deals with plasmid DNA (pRSETB). As to the kind of experiment: Binding to bacterial DNA, agarose gel electrophoresis. The conditions noted are these: 260 ng plasmid DNA, DNA/peptide ratios 1:1 to 1:4, 37° C. 10 minutes. The protocol:
Accordingly, to further elucidate the mechanism by which these novel peptides exert antimicrobial activity, it was examined whether the novel peptides dCATH-A6 and dCATH-A7 bind to intracellular bacterial DNA using electrophoresis.
Specifically, 260 ng of plasmid DNA (pRSETB) was reacted with each peptide at various ratios (lanes 1 through […] represent DNA only, 1:1, 1:2, 1:3, and 1:4 DNA/peptide ratios, respectively) at 37° C. for 10 minutes. The samples were then subjected to electrophoresis on a 1% agarose gel, stained with ethidium bromide (EtBr), and visualized under UV light.

Data set [4] relates to Escherichia coli ATCC 25922. Format: cell-based. The source says:
(§2) To compare the antimicrobial activity of the peptides prepared in <Example 1>, the minimum inhibitory concentration (MIC), […] measured. Here, the minimal inhibitory concentration (MIC) refers to the lowest concentration of a substance that prevents visible bacterial growth.
(§3) Specifically, the bacterial strains listed in Table 2 below were obtained and cultured in media suitable for each strain until the mid-log phase. The cultures were then diluted to a concentration of 2×10^4 cells/100 μL and prepared in microtiter plates (Nunc, USA). Subsequently, serial 2-fold dilutions of the peptides prepared in Example 1 were prepared, and 10 μL of each dilution was added to the wells, and the plates were incubated at 37° C. for 18 hours. Absorbance at 600 nm was measured using a microtiter plate reader (Merck ELISA reader, Germany) to determine the MIC values for each bacterial strain. The parent peptide dCATH was used as a control.

For data set [5], the system named is Listeria monocytogenes KCTC 3710. Format: cell-based.
Text: as §2, §3

The subject of data set [6] is Staphylococcus aureus ATCC 25923. Format: cell-based. The conditions noted are these: for MIC: ATCC 25923; for antimicrobial activity compared to the control peptide dCATH: against Staphylococcus aureus strains.
Text: as §2, §3

Data set [7] deals with Bacillus cereus KCTC 2508. Format: cell-based.
Text: as §2, §3

Data set [8] deals with Pseudomonas aeruginosa ATCC 27853. Format: cell-based.
Text: as §2, §3

In data set [9] the test system is Acinetobacter baumannii KCTC 1017. The format is cell-based. The conditions noted are these: for MIC: KCTC 1017; for antimicrobial activity compared to the control peptide dCATH: against Acinetobacter baumannii.
Text: as §2, §3

For the compound `CC[C@H](C)[C@H](NC(=O)[C@H](C)NC(=O)[C@H](CC(C)C)NC(=O)[C@@H]1CCCN1C(=O)[C@@H](NC(=O)[C@H](CC(C)C)NC(=O)[C@H](CCC(N)=O)NC(=O)[C@H](Cc1c[nH]c2ccccc12)NC(=O)[C@H](Cc1ccccc1)NC(=O)[C@H](CCCNC(=N)N)NC(=O)[C@@H](N)CCCCN)C(C)C)C(=O)N[C@@H](CCCCN)C(=O)N[C@H](C(=O)N[C@@H](Cc1ccc(O)cc1)C(=O)N[C@@H](CCCNC(=N)N)C(=O)N[C@@H](C)C(=O)N[C@@H](Cc1c[nH]c2ccccc12)C(=O)N[C@@H](CCCCN)C(=O)N[C@@H](CCCNC(=N)N)C(=O)N[C@@H](CCCNC(=N)N)C(N)=O)[C@@H](C)CC` [dCATH, reference compound] (H-KRFWQLVPLAIKIYRAWKRR-NH2; N-terminus assumed), the MBIC in data set [1] and in data set [2] was 4 µM each time. In the data set “in vitro”, the viability (usually a per cent measure of how many cells are alive, often set against a control) at 24 h, 3.13 µM is 100%. For the same compound, the viability at 24 h, 6.25 µM in the data set “in vitro” is 100%. Further, the viability at 24 h, 12.5 µM in the data set “in vitro” came out at 75.3%. In addition, the viability at 24 h, 25 µM in “in vitro” is 11.6%. The compound further came in with a viability at 24 h, 50 µM in “in vitro” of 2.51%. For the same compound, the “membrane damage in Acinetobacter baumannii (shift in PI fluorescence signal)” value in [3] is “induced membrane damage”. The “binding to DNA (electrophoresis)” value in the data set on plasmid DNA (pRSETB) is on record as “no detectable binding to DNA”. The MIC (as a rule, the smallest concentration in the dilution series that meets the test's criterion for growth inhibition) in data set [4] came to 2 µM (≈ 5.26 µg/mL); in data set [5], 2 µM (≈ 5.26 µg/mL); in [6] it was 2 µM (≈ 5.26 µg/mL); in [7] it was 1 µM (≈ 2.63 µg/mL); in data set [8], 2 µM (≈ 5.26 µg/mL); in data set [9] it was 2 µM (≈ 5.26 µg/mL).
`CC[C@H](C)[C@H](NC(=O)[C@H](C)NC(=O)[C@H](CCCCN)NC(=O)[C@H](CCCCN)NC(=O)[C@@H](NC(=O)[C@H](CC(C)C)NC(=O)[C@H](CCC(N)=O)NC(=O)[C@H](C)NC(=O)[C@H](C)NC(=O)[C@H](CCCNC(=N)N)NC(=O)[C@@H](N)CCCCN)C(C)C)C(=O)N[C@@H](CCCCN)C(=O)N[C@@H](CCCCN)C(=O)N[C@@H](Cc1ccc(O)cc1)C(=O)N[C@@H](CCCNC(=N)N)C(=O)N[C@@H](C)C(=O)N[C@@H](Cc1c[nH]c2ccccc12)C(=O)N[C@@H](CCCCN)C(=O)N[C@@H](CCCNC(=N)N)C(=O)N[C@@H](CCCNC(=N)N)C(N)=O` [dCATH-A6] (H-KRAAQLVKKAIKKYRAWKRR-NH2; N-terminus assumed) returned an MBIC in [1] of 2 µM. The same compound returned an MBIC in data set [2] of 2 µM. Besides, in the data set “in vitro”, the viability at 24 h, 3.13 µM amounted to 98.9%; the viability at 24 h, 6.25 µM was 100%; the viability at 24 h, 12.5 µM worked out at 94.7%; the viability at 24 h, 25 µM was 98%. In “in vitro”, the viability at 24 h, 50 µM worked out at 97.8% and the viability at 24 h, 100 µM was 92%. Also, in data set [3], the “membrane damage in Acinetobacter baumannii (shift in PI fluorescence signal)” value is “no damage to the bacterial membrane”. The “binding to DNA (electrophoresis)” value with plasmid DNA (pRSETB) is recorded as “did bind to DNA”. Also, the MIC in data set [4] is 2 µM (≈ 5 µg/mL). Moreover, the MIC in data set [5] was found to be 2 µM (≈ 5 µg/mL). Further, in data set [6], the minimal inhibitory concentration (MIC) stood at 0.5 µM (≈ 1.25 µg/mL) and the “antimicrobial activity compared to the control peptide dCATH” value is recorded as “notably superior activity”. In data set [7], this compound showed a minimal inhibitory concentration (MIC) of 2 µM (≈ 5 µg/mL). Besides, the minimal inhibitory concentration (MIC) in [8] stood at 2 µM (≈ 5 µg/mL). Further, in [9], the MIC amounted to 1 µM (≈ 2.5 µg/mL) and the “antimicrobial activity compared to the control peptide dCATH” value is “significantly superior antimicrobial activity”.
As for `CC[C@H](C)[C@H](NC(=O)[C@H](C)NC(=O)[C@H](CCCCN)NC(=O)[C@H](CCCCN)NC(=O)[C@@H](NC(=O)[C@H](CC(C)C)NC(=O)[C@H](CCC(N)=O)NC(=O)[C@H](C)NC(=O)[C@H](C)NC(=O)[C@H](CCCNC(=N)N)NC(=O)[C@@H](N)CCCCN)C(C)C)C(=O)N[C@@H](CCCCN)C(=O)N[C@@H](CCCCN)C(=O)N[C@@H](Cc1ccc(O)cc1)C(=O)N[C@@H](CCCNC(=N)N)C(=O)N[C@@H](C)C(=O)N[C@@H](Cc1c[nH]c2ccccc12)C(=O)N[C@@H](CCCCN)C(N)=O` [dCATH-A7, KRAAQLVKKAIKKYRAWK] (H-KRAAQLVKKAIKKYRAWK-NH2; N-terminus assumed), the MBIC in [1] is 2 µM. For the same compound, the MBIC in data set [2] was 1 µM. In addition, in the data set “in vitro”, the viability at 24 h, 3.13 µM is 98%; the viability at 24 h, 6.25 µM is 99.2%; the viability at 24 h, 12.5 µM is 100%; the viability at 24 h, 25 µM worked out at 100%. In the data set “in vitro”, the viability at 24 h, 50 µM amounted to 100% and the viability at 24 h, 100 µM is 98.4%. Besides, the “membrane damage in Acinetobacter baumannii (shift in PI fluorescence signal)” value in [3] was “no damage to the bacterial membrane”. Moreover, the “binding to DNA (electrophoresis)” value in the data set on plasmid DNA (pRSETB) is “did bind to DNA”. In data set [4], this compound yielded an MIC of 4 µM (≈ 8.74 µg/mL). In data set [5], this compound came in with an MIC of 4 µM (≈ 8.74 µg/mL). Also, in data set [6], the minimum inhibitory concentration (MIC) came out at 0.5 µM (≈ 1.09 µg/mL) and the “antimicrobial activity compared to the control peptide dCATH” value is “notably superior activity”. The MIC in [7] worked out at 1 µM (≈ 2.19 µg/mL). The same compound showed an MIC in [8] of 8 µM (≈ 17.5 µg/mL). Moreover, in [9], the MIC was 1 µM (≈ 2.19 µg/mL) and the “antimicrobial activity compared to the control peptide dCATH” value was “significantly superior antimicrobial activity”.
